Our source for the IC50 values is article PMC8716817 (Frontiers in Pharmacology, 2021).

Broadly, the IC50 is the concentration that gives 50% inhibition. Low values mean greater potency in that assay, high ones weaker potency in that assay.

The target of one test is T1, NaV1.7 (Rattus norvegicus, UniProt O08562).
T1 construct: gene Scn9a
The experiment in a line: whole-cell patch clamp, stable NaV1.[…] HEK cells (vincristine pre-incubated). Format: cell-based. (In general: The patch-clamp technique gives a direct electrical read-out from membranes.)

Another test addresses T2, NaV1.8 (Rattus norvegicus, UniProt Q62968).
T2 construct: gene Scn10a
Type of test: cell-based.

T1 sequence (O08562 whole entry): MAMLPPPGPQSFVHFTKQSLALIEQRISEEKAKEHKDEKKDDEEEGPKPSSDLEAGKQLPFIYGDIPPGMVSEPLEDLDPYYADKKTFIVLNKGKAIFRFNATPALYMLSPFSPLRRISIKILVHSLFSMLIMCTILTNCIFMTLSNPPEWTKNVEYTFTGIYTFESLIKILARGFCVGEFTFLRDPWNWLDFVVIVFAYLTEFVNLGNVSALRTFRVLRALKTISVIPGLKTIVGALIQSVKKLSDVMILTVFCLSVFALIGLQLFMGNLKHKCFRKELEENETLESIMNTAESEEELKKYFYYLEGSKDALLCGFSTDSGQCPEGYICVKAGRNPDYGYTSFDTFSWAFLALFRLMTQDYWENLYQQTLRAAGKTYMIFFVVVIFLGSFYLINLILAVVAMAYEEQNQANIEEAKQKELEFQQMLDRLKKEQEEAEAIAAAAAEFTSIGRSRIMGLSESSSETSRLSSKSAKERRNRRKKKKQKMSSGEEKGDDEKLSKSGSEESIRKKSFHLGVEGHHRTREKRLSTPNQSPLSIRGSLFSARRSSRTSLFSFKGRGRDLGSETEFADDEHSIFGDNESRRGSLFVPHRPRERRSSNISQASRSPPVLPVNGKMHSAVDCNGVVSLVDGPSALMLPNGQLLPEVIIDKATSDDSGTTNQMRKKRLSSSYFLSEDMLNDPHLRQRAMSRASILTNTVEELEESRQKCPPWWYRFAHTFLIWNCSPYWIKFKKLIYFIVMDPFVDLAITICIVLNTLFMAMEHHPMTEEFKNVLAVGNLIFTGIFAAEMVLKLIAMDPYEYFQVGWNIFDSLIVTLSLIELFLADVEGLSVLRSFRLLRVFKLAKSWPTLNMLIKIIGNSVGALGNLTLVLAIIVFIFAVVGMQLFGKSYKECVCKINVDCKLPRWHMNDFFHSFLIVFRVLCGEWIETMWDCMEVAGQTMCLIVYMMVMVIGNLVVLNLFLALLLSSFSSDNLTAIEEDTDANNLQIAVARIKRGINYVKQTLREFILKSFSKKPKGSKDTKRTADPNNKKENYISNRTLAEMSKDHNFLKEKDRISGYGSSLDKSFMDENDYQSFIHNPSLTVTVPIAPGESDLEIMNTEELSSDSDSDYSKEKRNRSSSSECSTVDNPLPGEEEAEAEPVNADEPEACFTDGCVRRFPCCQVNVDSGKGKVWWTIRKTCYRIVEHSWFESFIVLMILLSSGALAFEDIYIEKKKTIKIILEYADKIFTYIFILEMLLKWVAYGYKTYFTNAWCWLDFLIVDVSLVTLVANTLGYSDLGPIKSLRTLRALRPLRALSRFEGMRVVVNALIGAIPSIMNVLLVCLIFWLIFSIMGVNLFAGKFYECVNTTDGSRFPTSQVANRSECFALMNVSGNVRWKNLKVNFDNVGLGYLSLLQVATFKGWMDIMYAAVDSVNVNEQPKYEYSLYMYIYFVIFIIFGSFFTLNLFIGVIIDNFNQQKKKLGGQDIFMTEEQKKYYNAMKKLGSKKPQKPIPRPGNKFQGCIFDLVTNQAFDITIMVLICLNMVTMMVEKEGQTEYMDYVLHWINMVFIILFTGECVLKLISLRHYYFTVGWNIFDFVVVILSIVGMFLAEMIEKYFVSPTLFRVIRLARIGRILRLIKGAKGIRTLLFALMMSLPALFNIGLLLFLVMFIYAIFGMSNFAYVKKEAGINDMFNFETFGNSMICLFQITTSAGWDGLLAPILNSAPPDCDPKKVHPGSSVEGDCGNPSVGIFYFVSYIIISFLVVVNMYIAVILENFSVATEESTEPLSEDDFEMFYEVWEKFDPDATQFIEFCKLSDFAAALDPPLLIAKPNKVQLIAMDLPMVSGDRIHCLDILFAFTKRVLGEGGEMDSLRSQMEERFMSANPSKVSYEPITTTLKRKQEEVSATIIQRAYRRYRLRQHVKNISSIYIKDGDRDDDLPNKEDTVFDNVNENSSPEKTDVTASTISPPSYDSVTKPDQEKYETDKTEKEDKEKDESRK
T2 sequence (Q62968 whole entry): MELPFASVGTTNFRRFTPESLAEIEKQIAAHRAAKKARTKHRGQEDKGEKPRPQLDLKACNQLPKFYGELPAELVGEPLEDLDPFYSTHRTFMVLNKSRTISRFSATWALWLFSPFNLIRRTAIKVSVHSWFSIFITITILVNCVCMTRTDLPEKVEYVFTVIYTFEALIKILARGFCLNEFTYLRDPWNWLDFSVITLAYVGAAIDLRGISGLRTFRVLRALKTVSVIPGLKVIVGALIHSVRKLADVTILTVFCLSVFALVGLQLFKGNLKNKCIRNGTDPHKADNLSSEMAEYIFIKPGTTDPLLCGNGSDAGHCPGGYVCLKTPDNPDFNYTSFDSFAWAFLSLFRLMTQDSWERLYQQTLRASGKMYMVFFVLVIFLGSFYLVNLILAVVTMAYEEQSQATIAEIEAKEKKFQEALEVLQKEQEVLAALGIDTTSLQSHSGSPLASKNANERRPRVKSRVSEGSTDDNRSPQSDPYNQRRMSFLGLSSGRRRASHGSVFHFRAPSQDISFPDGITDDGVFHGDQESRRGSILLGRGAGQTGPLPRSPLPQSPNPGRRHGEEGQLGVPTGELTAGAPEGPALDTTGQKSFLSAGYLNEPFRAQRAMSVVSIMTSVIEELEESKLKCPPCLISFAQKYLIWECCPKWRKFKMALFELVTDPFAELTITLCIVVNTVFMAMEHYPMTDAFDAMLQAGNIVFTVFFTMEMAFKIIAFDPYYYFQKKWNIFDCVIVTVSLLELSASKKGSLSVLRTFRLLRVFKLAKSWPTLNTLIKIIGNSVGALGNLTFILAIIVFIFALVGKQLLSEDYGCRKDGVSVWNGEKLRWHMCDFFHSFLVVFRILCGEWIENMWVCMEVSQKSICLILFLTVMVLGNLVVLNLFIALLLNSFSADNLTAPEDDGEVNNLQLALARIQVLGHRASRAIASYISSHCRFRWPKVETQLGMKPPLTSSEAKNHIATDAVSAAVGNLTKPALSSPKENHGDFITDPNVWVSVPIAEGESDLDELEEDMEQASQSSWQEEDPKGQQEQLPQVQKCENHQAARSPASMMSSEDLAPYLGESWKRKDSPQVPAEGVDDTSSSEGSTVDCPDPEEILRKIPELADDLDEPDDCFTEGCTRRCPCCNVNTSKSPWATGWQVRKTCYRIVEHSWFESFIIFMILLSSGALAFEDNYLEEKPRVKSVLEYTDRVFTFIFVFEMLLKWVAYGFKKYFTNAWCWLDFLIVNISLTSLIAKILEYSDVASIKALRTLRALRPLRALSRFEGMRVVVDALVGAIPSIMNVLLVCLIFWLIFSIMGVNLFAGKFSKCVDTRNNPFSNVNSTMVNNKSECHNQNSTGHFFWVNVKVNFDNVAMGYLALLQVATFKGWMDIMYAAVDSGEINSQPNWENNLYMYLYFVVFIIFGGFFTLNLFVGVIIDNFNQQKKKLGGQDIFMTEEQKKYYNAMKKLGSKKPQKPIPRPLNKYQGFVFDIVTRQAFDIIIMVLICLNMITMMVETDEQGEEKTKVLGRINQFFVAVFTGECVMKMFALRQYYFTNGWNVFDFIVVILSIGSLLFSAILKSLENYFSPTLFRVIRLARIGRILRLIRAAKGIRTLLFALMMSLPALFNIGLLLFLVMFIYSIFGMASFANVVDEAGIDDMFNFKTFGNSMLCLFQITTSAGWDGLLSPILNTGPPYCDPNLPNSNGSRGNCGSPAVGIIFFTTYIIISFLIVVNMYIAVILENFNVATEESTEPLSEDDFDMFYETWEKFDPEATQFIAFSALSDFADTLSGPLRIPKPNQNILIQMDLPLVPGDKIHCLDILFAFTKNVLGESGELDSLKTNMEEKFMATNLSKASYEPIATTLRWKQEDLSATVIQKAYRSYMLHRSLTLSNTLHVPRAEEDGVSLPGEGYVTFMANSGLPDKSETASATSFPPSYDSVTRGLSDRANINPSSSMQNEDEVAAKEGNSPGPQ

On to `OCc1ccc(O[C@@H]2O[C@H](CO)[C@@H](O)[C@H](O)[C@H]2O)cc1` [GAS, Gastrodin], for which the IC50 on NaV1.7 is 25.9 ± 0.98 µM; at NaV1.8, 67.5 ± 20.7 µM.
